Columns and labels:
wild-type hGDH = target: T1, wild-type hGDH (Homo sapiens, UniProt P00367); experiment: Biolayer interference-based binding assay (Ni-NTA biosensor), wild-type hGDH; conditions: His-tagged wild-type hGDH 20 μg/mL on Ni-NTA biosensor; read-out: estimated KD
T1 construct: confirming that these are the full-length wild-type hGDH; made in house; host or cells: E. coli BL21 (pET-30a)
Method: (§1) After immobilization of His-tagged wild-type GDH or hGDHH454Y (20 μg/mL) on a Ni-NTA biosensor, the probe was immersed in a series of dilutions of EGCG to measure binding.
(§2) The inhibitor/substrate binding assays were performed in 3 steps: step one is coating the Ni-NTA biosensor with the human wild type and the mutant GDH proteins (20 μg/mL) for 30 min; step two is dipping the coated individual sensor into a series dilution of substrates or inhibitors, such as EGCG (0, 1, 10, 100, 1000, 10000 μM; 10-fold dilution) or trypsin (0, 0.08, 0.25, 0.75, 2.25, 6.75 μM; 3-fold dilution) for 100 s, to obtain the on-rate (kon); step three is dipping to wash with phosphate-buffered saline (PBS) for 100 s. to measure the off-rate (koff). The KD was calculated by dividing […].

hGDHH454Y [1] = target: T2, hGDHH454Y (Homo sapiens, UniProt P00367, H507Y); experiment: Biolayer interference-based binding assay (Ni-NTA biosensor), hGDHH454Y; conditions: His-tagged hGDHH454Y 20 μg/mL on Ni-NTA biosensor; read-out: estimated KD
T2 construct: made in house; host or cells: E. coli BL21 codon plus (pET-30a)
T2 sequence (P00367 54-558 H507Y): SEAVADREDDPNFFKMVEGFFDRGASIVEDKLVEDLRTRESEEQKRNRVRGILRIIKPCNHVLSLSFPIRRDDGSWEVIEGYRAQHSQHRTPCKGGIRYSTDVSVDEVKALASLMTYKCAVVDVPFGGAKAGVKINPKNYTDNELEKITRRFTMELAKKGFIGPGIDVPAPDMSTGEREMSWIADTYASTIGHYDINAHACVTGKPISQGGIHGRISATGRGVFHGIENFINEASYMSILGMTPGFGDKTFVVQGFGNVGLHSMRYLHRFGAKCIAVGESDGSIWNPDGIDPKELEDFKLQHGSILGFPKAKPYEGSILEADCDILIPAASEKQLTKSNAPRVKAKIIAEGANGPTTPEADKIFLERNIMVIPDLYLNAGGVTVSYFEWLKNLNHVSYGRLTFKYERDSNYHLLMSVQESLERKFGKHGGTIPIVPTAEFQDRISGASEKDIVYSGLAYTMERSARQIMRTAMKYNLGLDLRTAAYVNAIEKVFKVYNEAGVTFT
Method: as §1, §2

hGDHH454Y [2] = experiment: as above; design: species or system human; conditions: KD hGDHH454Y versus wild-type
Method: as §1, §2

bovine GDH [3] = target: T3, bovine GDH (Bos taurus, UniProt P00366); experiment: GDH inhibition assay (EZMTT detection); assay type: biochemical; conditions: for increase in IC50 on increasing GDH concentration by 8 times: 0.3 to 2.5 mg/mL GDH
T3 construct: purchased
T3 sequence (P00366 58-558): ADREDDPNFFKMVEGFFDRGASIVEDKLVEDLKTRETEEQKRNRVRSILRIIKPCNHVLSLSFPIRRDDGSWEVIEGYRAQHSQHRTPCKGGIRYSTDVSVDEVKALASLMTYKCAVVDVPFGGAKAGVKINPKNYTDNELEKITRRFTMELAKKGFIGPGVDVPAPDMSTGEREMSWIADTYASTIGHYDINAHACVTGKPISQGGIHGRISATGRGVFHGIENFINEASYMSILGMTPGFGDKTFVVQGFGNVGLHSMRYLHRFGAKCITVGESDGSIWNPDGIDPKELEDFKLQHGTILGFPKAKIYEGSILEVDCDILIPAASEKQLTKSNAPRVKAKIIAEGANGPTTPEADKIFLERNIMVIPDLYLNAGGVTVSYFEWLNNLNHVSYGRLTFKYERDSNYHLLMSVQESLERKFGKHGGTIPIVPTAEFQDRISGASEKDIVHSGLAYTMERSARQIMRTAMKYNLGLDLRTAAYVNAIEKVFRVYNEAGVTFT
Method: Since both GTP and EGCG are known allosteric GDH inhibitors, we tested their dose-dependent inhibition of different levels of GDH protein. […] EGCG inhibition of GDH is less affected by the GDH enzyme concentration.
[…] After 0.5 h pre-incubation, a mixture of Glu (10 mM final), NADP^+ ([…]), and the EZMTT detection reagent were added to each well, and the reaction was carried out at room temperature for 1 h before the absorbance measurement at 450 nm. To exclude assay artifacts, controls with no GDH were also used, and all experiments were carried out in triplicate and repeated 3 times.

bovine GDH [4] = target: T3, bovine GDH; experiment: Trypsin degradation assay of bovine GDH (SDS-PAGE gel); assay type: biochemical; conditions: 20 μg/mL trypsin; for effect on trypsin digestion of Bo.GDH: low and high concentrations (GTP 10 or 50 mM; EGCG 0.05 or 5 mM), 37 °C 1 h
Method: (§3) Trypsin (final concentration 20 μg/mL) were mixed with 1 mg/mL (final concentration) hGDH-H454Y or bovine-GDH or BSA, respectively, in Eppendorf (EP) tubes in a phosphate buffer (pH8; 10 mM Na3PO4, 50 mM K3PO4, 100 mM NH4HCO3, 0.1% Tween80 and 0.1% Tween). Then proteins were subjected to digestion in a wet chamber at 37 °C for 1 h. Each sample was analyzed by denaturing SDS-PAGE gel. All experiments were repeated 3 times.
(§4) 2.5 mg/mL bovine GDH (final concentration) or 2.5 mg/mL BSA proteins were mixed with various compounds (10 mM or 50 mM GTP; 0.05 mM or 5 mM EGCG) in EP tubes at room temperature for 1 h. To each tube, 20 μg/mL trypsin was added, and the reaction was carried out in a wet chamber at 37 °C for 1 h. Samples were analyzed by both denaturing SDS-PAGE gel and native-PAGE gel. All experiments were repeated 3 times.
(§5) The dried gel was placed in the imager and photographed after the bands were clear. The gray value of the bands was calculated on a uniform background using Image-J software (1.53a). The ratio of the gray value of the strips under each experimental condition to the gray value of the control strips was calculated, as it is the relative gray value of the strips under that experimental condition.

hGDHH454Y [5] = target: T2, hGDHH454Y; experiment: Trypsin degradation assay of hGDHH454Y (SDS-PAGE gel); assay type: biochemical
Method: as §3, §4, §5

BSA = target: T4, BSA (Bos taurus, UniProt P02769); experiment: Trypsin degradation assay of BSA (SDS-PAGE gel); assay type: biochemical, bovine
T4 construct: purchased Biosharp
T4 sequence (P02769 25-607): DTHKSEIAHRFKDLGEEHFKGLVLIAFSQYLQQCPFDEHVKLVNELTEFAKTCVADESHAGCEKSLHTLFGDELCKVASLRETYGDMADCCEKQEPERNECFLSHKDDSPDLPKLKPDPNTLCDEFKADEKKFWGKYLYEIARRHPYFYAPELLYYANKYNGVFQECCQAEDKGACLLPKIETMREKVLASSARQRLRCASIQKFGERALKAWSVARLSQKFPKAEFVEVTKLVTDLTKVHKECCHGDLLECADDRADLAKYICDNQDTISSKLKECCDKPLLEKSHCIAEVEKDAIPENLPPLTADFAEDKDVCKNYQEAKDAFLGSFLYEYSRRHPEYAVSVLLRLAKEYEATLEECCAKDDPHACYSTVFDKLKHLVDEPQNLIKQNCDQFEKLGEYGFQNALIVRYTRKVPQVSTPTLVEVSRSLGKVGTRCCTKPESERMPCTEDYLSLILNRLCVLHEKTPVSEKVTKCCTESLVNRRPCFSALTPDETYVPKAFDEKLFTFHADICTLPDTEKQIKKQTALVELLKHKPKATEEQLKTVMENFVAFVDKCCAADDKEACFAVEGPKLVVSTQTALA
Method: as §3, §4, §5

bovine GDH hexamer = target: T5, bovine GDH hexamer (Bos taurus, UniProt P00366); experiment: Native-PAGE gel analysis of interaction of EGCG, bovine GDH and trypsin; assay type: biochemical
T5 construct: purchased
T5 sequence (P00366 58-558): as the sequence (P00366 58-558) above
Description: To further understand the mechanism of EGCG promoting GDH protein degradation, we investigated the interactions among EGCG, GDH, and trypsin by native gel analysis. Because the bovine GDH protein sequence shares 98% homology with the human GDH sequence and 100% homology similarity in the substrate and regulatory binding sites, we used bovine GDH as a substitute for wild-type human GDH in our studies. […] Taken together, the mechanism might be the following: binding of EGCG to hexametric GDH breaks down the hexamer into monomers, and further EGCG–trypsin complex facilitates the GDH degradation.
as §4, §5

[6] = high concentrations: 50 mM GTP, 5 mM EGCG
[7] = lower concentrations: GTP 10 mM, EGCG 0.05 mM
[8] = 20 μg/mL trypsin, 1 mg/mL protein, 1 h

T1 sequence (P00367 54-558): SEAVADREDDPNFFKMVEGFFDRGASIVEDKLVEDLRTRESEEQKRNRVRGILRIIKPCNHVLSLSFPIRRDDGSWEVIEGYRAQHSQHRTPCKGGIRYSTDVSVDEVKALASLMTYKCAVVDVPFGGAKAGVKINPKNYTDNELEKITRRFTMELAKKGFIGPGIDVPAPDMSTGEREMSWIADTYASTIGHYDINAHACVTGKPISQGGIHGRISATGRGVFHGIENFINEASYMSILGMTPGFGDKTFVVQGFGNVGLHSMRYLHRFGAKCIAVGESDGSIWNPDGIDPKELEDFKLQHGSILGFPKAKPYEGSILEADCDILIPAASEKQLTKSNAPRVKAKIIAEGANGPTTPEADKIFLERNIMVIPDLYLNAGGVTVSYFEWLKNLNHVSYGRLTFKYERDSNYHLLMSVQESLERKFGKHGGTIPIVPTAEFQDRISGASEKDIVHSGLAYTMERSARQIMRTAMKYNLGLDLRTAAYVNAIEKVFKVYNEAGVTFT

O=C(O[C@@H]1Cc2c(O)cc(O)cc2O[C@@H]1c1cc(O)c(O)c(O)c1)c1cc(O)c(O)c(O)c1 [EGCG, (−)-cis-2-(3,4,5-trihydroxyphenyl)-3,4-dihydro-1(2H)-benzopyran-3,5,7-triol 3-gallate]
Kd (wild-type hGDH): 4.2 µM
Kd (hGDHH454Y [1]): 68 µM
fold stronger affinity (KD) for wild-type GDH than for the H454Y mutant (hGDHH454Y [2]): 17 fold
increase in IC50 on increasing GDH concentration by 8 times (bovine GDH [3]): 50 fold
IC50 (bovine GDH [3]; bovine GDH 0.3 mg/mL): 2.7 µM
IC50 (bovine GDH [3]; bovine GDH 2.5 mg/mL): 138 µM
effect on trypsin digestion of Bo.GDH (bovine GDH [4]): greatly increased trypsin digestion in a dose-dependent manner
effect on hGDHH454Y hydrolysis by trypsin (hGDHH454Y [5]; 5 mM EGCG): promote
effect on trypsin digestion of BSA (BSA; [6]): promoted BSA degradation
effect on trypsin digestion of BSA (BSA; [7]): essentially no significant effect
effect on hexamers of bovine GDH (bovine GDH hexamer; 5 mM EGCG): converted to monomers
monomeric GDH degradation by trypsin (bovine GDH hexamer; 5 mM EGCG added to GDH and 20 μg/mL trypsin): more monomeric GDH degradation was observed

Nc1nc2c(ncn2[C@@H]2O[C@H](COP(=O)(O)OP(=O)(O)OP(=O)(O)O)[C@@H](O)[C@H]2O)c(=O)[nH]1 [GTP]
increase in IC50 on increasing GDH concentration by 8 times (bovine GDH [3]): 1000 fold
IC50 (bovine GDH [3]; bovine GDH 0.3 mg/mL): 16 µM
IC50 (bovine GDH [3]; bovine GDH 2.5 mg/mL): 16900 µM
effect on trypsin digestion of Bo.GDH (bovine GDH [4]): prevented the trypsin digestion
effect on hGDHH454Y hydrolysis by trypsin (hGDHH454Y [5]; GTP up to 50 mM): no effect
effect on trypsin digestion of BSA (BSA; [6]): prevented BSA digestion
effect on trypsin digestion of BSA (BSA; [7]): essentially no significant effect

Trypsin
Kd (wild-type hGDH): < 1e-06 µM
Kd (hGDHH454Y [1]): 1500 µM
fold stronger affinity (KD) for wild-type GDH than for the H454Y mutant (hGDHH454Y [2]): 10^9 fold
degradation by trypsin alone (bovine GDH [4]; 1 mg/mL protein, 1 h): significant hydrolysis
degradation by trypsin alone (hGDHH454Y [5]; [8]): did not show observable degradation
degradation by trypsin alone (BSA; [8]): significant hydrolysis
effect on hexamers of bovine GDH (bovine GDH hexamer; trypsin 20–500 μg/mL): converted to monomers

Source: PMC12196458, “An Alternative Mechanism of Glutamate Dehydrogenase Inhibition by EGCG: Promotion of Protein Degradation” (Pharmaceuticals, 2025)
